{"source": "the supplement of paper PMC10307832", "experiment_in_all_cases": "relative viability (nuclei count vs DMSO), 5 days (fraction); higher = more cells survive", "key": {"CAL-12T": {"test_system": "CAL-12T", "method_in_brief": "(§1)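 Relative viability was taken as the ratio of nuclei in treated wells to nuclei in vehicle wells. Lung cancer cell lines in 1536-well plates received compounds by pin tool one day after seeding, either one drug alone or a fixed anchor-drug dose plus five library-drug doses (not always all listed) in √10 steps. Nuclei were counted on 4× images after 5 days of treatment, and values are medians of duplicate plates.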"}, "EKVX": {"test_system": "EKVX", "method_in_brief": "as §1"}, "H3255": {"test_system": "H3255", "method_in_brief": "as §1"}, "HCC-15": {"test_system": "HCC-15", "method_in_brief": "as §1"}, "HCC-827": {"test_system": "HCC-827", "method_in_brief": "as §1"}, "LCLC-97TM1": {"test_system": "LCLC-97TM1", "method_in_brief": "as §1"}, "LK-2": {"test_system": "LK-2", "method_in_brief": "as §1"}, "NCI-H1355": {"test_system": "NCI-H1355", "method_in_brief": "as §1"}, "NCI-H1734": {"test_system": "NCI-H1734", "method_in_brief": "as §1"}, "NCI-H1755": {"test_system": "NCI-H1755", "method_in_brief": "as §1"}, "NCI-H1975": {"test_system": "NCI-H1975", "method_in_brief": "as §1"}, "NCI-H2342": {"test_system": "NCI-H2342", "method_in_brief": "as §1"}, "NCI-H2405": {"test_system": "NCI-H2405", "method_in_brief": "as §1"}, "NCI-H322M": {"test_system": "NCI-H322M", "method_in_brief": "as §1"}, "PC-14": {"test_system": "PC-14", "method_in_brief": "as §1"}, "PC-3 [JPC-3]": {"test_system": "PC-3 [JPC-3]", "method_in_brief": "as §1"}, "RERF-LC-KJ": {"test_system": "RERF-LC-KJ", "method_in_brief": "as §1"}}, "data": [{"smiles": "Nc1ccn([C@@H]2O[C@H](CO)[C@@H](O)[C@@H]2O)c(=O)n1", "note": "[Cytarabine] + NC(=O)Nc1cc(-c2cccc(F)c2)sc1C(=O)N[C@H]1CCCNC1 [AZD7762] (partner 0.2 µM)", "values": [{"measurement": "relative viability", "setting": "CAL-12T; first compound 0.005 µM", "value": 0.611}, {"measurement": "relative viability", "setting": "CAL-12T; first compound 0.01581 µM", "value": 0.405}, {"measurement": "relative viability", "setting": "CAL-12T; first compound 0.05 µM", "value": 0.248}, {"measurement": "relative viability", "setting": "CAL-12T; first compound 0.1581 µM", "value": 0.208}, {"measurement": "relative viability", "setting": "CAL-12T; first compound 0.5 µM", "value": 0.221}, {"measurement": "relative viability", "setting": "EKVX; first compound 0.005 µM", "value": 0.697}, {"measurement": "relative viability", "setting": "EKVX; first compound 0.01581 µM", "value": 0.676}, {"measurement": "relative viability", "setting": "EKVX; first compound 0.05 µM", "value": 0.329}, {"measurement": "relative viability", "setting": "EKVX; first compound 0.5 µM", "value": 0.67}, {"measurement": "relative viability", "setting": "H3255; first compound 0.005 µM", "value": 0.945}, {"measurement": "relative viability", "setting": "H3255; first compound 0.01581 µM", "value": 0.812}, {"measurement": "relative viability", "setting": "H3255; first compound 0.05 µM", "value": 0.764}, {"measurement": "relative viability", "setting": "H3255; first compound 0.1581 µM", "value": 0.583}, {"measurement": "relative viability", "setting": "H3255; first compound 0.5 µM", "value": 0.551}, {"measurement": "relative viability", "setting": "HCC-15; first compound 0.005 µM", "value": 1.11}, {"measurement": "relative viability", "setting": "HCC-15; first compound 0.01581 µM", "value": 1.52}, {"measurement": "relative viability", "setting": "HCC-15; first compound 0.05 µM", "value": 1.45}, {"measurement": "relative viability", "setting": "HCC-15; first compound 0.1581 µM", "value": 1.06}, {"measurement": "relative viability", "setting": "HCC-15; first compound 0.5 µM", "value": 0.913}, {"measurement": "relative viability", "setting": "HCC-827; first compound 0.005 µM", "value": 0.17}, {"measurement": "relative viability", "setting": "HCC-827; first compound 0.01581 µM", "value": 0.168}, {"measurement": "relative viability", "setting": "HCC-827; first compound 0.05 µM", "value": 0.13}, {"measurement": "relative viability", "setting": "HCC-827; first compound 0.1581 µM", "value": 0.14}, {"measurement": "relative viability", "setting": "HCC-827; first compound 0.5 µM", "value": 0.148}, {"measurement": "relative viability", "setting": "LCLC-97TM1; first compound 0.005 µM", "value": 0.14}, {"measurement": "relative viability", "setting": "LCLC-97TM1; first compound 0.01581 µM", "value": 0.0846}, {"measurement": "relative viability", "setting": "LCLC-97TM1; first compound 0.05 µM", "value": 0.0944}, {"measurement": "relative viability", "setting": "LCLC-97TM1; first compound 0.1581 µM", "value": 0.0643}, {"measurement": "relative viability", "setting": "LCLC-97TM1; first compound 0.5 µM", "value": 0.0575}, {"measurement": "relative viability", "setting": "LK-2; first compound 0.005 µM", "value": 0.3}, {"measurement": "relative viability", "setting": "LK-2; first compound 0.01581 µM", "value": 0.13}, {"measurement": "relative viability", "setting": "LK-2; first compound 0.05 µM", "value": 0.0997}, {"measurement": "relative viability", "setting": "LK-2; first compound 0.1581 µM", "value": 0.0979}, {"measurement": "relative viability", "setting": "LK-2; first compound 0.5 µM", "value": 0.12}, {"measurement": "relative viability", "setting": "NCI-H1355; first compound 0.005 µM", "value": 0.455}, {"measurement": "relative viability", "setting": "NCI-H1355; first compound 0.01581 µM", "value": 0.455}, {"measurement": "relative viability", "setting": "NCI-H1355; first compound 0.05 µM", "value": 0.356}, {"measurement": "relative viability", "setting": "NCI-H1355; first compound 0.1581 µM", "value": 0.181}, {"measurement": "relative viability", "setting": "NCI-H1355; first compound 0.5 µM", "value": 0.188}, {"measurement": "relative viability", "setting": "NCI-H1734; first compound 0.005 µM", "value": 0.258}, {"measurement": "relative viability", "setting": "NCI-H1734; first compound 0.01581 µM", "value": 0.172}, {"measurement": "relative viability", "setting": "NCI-H1734; first compound 0.05 µM", "value": 0.159}, {"measurement": "relative viability", "setting": "NCI-H1734; first compound 0.1581 µM", "value": 0.0997}, {"measurement": "relative viability", "setting": "NCI-H1734; first compound 0.5 µM", "value": 0.102}, {"measurement": "relative viability", "setting": "NCI-H1755; first compound 0.005 µM", "value": 0.501}, {"measurement": "relative viability", "setting": "NCI-H1755; first compound 0.01581 µM", "value": 0.314}, {"measurement": "relative viability", "setting": "NCI-H1755; first compound 0.05 µM", "value": 0.334}, {"measurement": "relative viability", "setting": "NCI-H1755; first compound 0.1581 µM", "value": 0.372}, {"measurement": "relative viability", "setting": "NCI-H1755; first compound 0.5 µM", "value": 0.298}, {"measurement": "relative viability", "setting": "NCI-H1975; first compound 0.005 µM", "value": 0.679}, {"measurement": "relative viability", "setting": "NCI-H1975; first compound 0.01581 µM", "value": 0.581}, {"measurement": "relative viability", "setting": "NCI-H1975; first compound 0.05 µM", "value": 0.388}, {"measurement": "relative viability", "setting": "NCI-H1975; first compound 0.1581 µM", "value": 0.321}, {"measurement": "relative viability", "setting": "NCI-H1975; first compound 0.5 µM", "value": 0.234}, {"measurement": "relative viability", "setting": "NCI-H2342; first compound 0.005 µM", "value": 0.472}, {"measurement": "relative viability", "setting": "NCI-H2342; first compound 0.01581 µM", "value": 0.385}, {"measurement": "relative viability", "setting": "NCI-H2342; first compound 0.05 µM", "value": 0.397}, {"measurement": "relative viability", "setting": "NCI-H2342; first compound 0.1581 µM", "value": 0.377}, {"measurement": "relative viability", "setting": "NCI-H2342; first compound 0.5 µM", "value": 0.301}, {"measurement": "relative viability", "setting": "NCI-H2405; first compound 0.005 µM", "value": 0.612}, {"measurement": "relative viability", "setting": "NCI-H2405; first compound 0.01581 µM", "value": 0.454}, {"measurement": "relative viability", "setting": "NCI-H2405; first compound 0.05 µM", "value": 0.445}, {"measurement": "relative viability", "setting": "NCI-H2405; first compound 0.1581 µM", "value": 0.249}, {"measurement": "relative viability", "setting": "NCI-H2405; first compound 0.5 µM", "value": 0.217}, {"measurement": "relative viability", "setting": "NCI-H322M; first compound 0.005 µM", "value": 0.405}, {"measurement": "relative viability", "setting": "NCI-H322M; first compound 0.01581 µM", "value": 0.494}, {"measurement": "relative viability", "setting": "NCI-H322M; first compound 0.05 µM", "value": 0.405}, {"measurement": "relative viability", "setting": "NCI-H322M; first compound 0.1581 µM", "value": 0.371}, {"measurement": "relative viability", "setting": "NCI-H322M; first compound 0.5 µM", "value": 0.385}, {"measurement": "relative viability", "setting": "PC-14; first compound 0.005 µM", "value": 0.346}, {"measurement": "relative viability", "setting": "PC-14; first compound 0.01581 µM", "value": 0.234}, {"measurement": "relative viability", "setting": "PC-14; first compound 0.05 µM", "value": 0.136}, {"measurement": "relative viability", "setting": "PC-14; first compound 0.1581 µM", "value": 0.0783}, {"measurement": "relative viability", "setting": "PC-14; first compound 0.5 µM", "value": 0.0484}, {"measurement": "relative viability", "setting": "PC-3 [JPC-3]; first compound 0.005 µM", "value": 0.746}, {"measurement": "relative viability", "setting": "PC-3 [JPC-3]; first compound 0.01581 µM", "value": 0.809}, {"measurement": "relative viability", "setting": "PC-3 [JPC-3]; first compound 0.05 µM", "value": 0.676}, {"measurement": "relative viability", "setting": "PC-3 [JPC-3]; first compound 0.1581 µM", "value": 0.395}, {"measurement": "relative viability", "setting": "PC-3 [JPC-3]; first compound 0.5 µM", "value": 0.425}, {"measurement": "relative viability", "setting": "RERF-LC-KJ; first compound 0.005 µM", "value": 0.957}, {"measurement": "relative viability", "setting": "RERF-LC-KJ; first compound 0.01581 µM", "value": 0.941}, {"measurement": "relative viability", "setting": "RERF-LC-KJ; first compound 0.05 µM", "value": 0.51}, {"measurement": "relative viability", "setting": "RERF-LC-KJ; first compound 0.1581 µM", "value": 0.381}, {"measurement": "relative viability", "setting": "RERF-LC-KJ; first compound 0.5 µM", "value": 0.322}]}]}
